Measurements reported in patent publication US20170044100A1, “INHIBITORS OF DRUG-RESISTANT MYCOBACTERIUM TUBERCULOSIS” (THE JOHNS HOPKINS UNIVERSITY, priority 2014, published 2017).
In brackets after ≈: the same amount, converted by molar mass.

How the values were obtained:
[1] = system: M. tuberculosis IAR2 (mmpL3 S288T mutant); format: cell-based, Mycobacterium tuberculosis
[2] = system: TF274 (extensively drug resistant strain of M. tuberculosis); assay: microbe, parasite or virus in culture; format: cell-based; details: Mycobacterium tuberculosis; read-out: MIC TF274 (XDR)
[3] = system: R506 (extensively drug resistant strain of M. tuberculosis); assay: microbe, parasite or virus in culture; format: cell-based; details: Mycobacterium tuberculosis; read-out: MIC R506 (XDR)
[4] = system: KZN494 (multi-drug resistant strain of M. tuberculosis); assay: microbe, parasite or virus in culture; format: cell-based; details: Mycobacterium tuberculosis; read-out: MIC KZN494 (MDR)
[5] = system: V2475 (multi-drug resistant strain of M. tuberculosis); assay: microbe, parasite or virus in culture; format: cell-based; details: Mycobacterium tuberculosis; read-out: MIC V2475 (MDR)

NCC[C@H](O)C(=O)N[C@@H]1C[C@H](N)[C@@H](O[C@H]2O[C@H](CN)[C@@H](O)[C@H](O)[C@H]2O)[C@H](O)[C@H]1O[C@H]1O[C@H](CO)[C@@H](O)[C@H](N)[C@H]1O [Amikacin]
Fold change in MIC for IAR2 [1]: 0
MIC for IAR2 [1]: 1 µg/mL

Cc1cc(C)c2cc(C(=O)NC3CCCCC3)[nH]c2c1 [Compound 3, N-Cyclohexyl-4,6-dimethyl-1H-indole-2-carboxamide]
MIC [2]: 0.46 µM (≈ 0.124 µg/mL)
MIC [3]: 0.46 µM (≈ 0.124 µg/mL)
MIC [4]: 3.7 µM (≈ 1 µg/mL)
MIC [5]: 0.93 to 1.9 µM (≈ 0.251 to 0.514 µg/mL)
Fold change in MIC for IAR2 [1]: ≧(512-1024)
MIC for IAR2 [1]: ≧128 μg/mL
MIC upshift for IAR2 versus H37Rv [1]: ≥ 1024 fold

Cc1cc(C)c2cc(C(=O)NC3CCCCCC3)[nH]c2c1 [Compound 11, N-Cycloheptyl-4,6-dimethyl-1H-indole-2-carboxamide]
MIC [2]: 0.055 µM (≈ 0.0156 µg/mL)
MIC [3]: 0.055 µM (≈ 0.0156 µg/mL)
MIC [4]: 0.11 µM (≈ 0.0313 µg/mL)
MIC [5]: 0.11 µM (≈ 0.0313 µg/mL)
Fold change in MIC for IAR2 [1]: 32-64
MIC for IAR2 [1]: 1 µg/mL

Cc1cc(C)c2cc(C(=O)NC3CCCCCCC3)[nH]c2c1 [Compound 12, N-Cyclooctyl-4,6-dimethyl-1H-indole-2-carboxamide]
MIC [2]: 0.026 µM (≈ 0.00776 µg/mL)
MIC [3]: 0.0067 µM (≈ 0.002 µg/mL)
Fold change in MIC for IAR2 [1]: 64
MIC for IAR2 [1]: 0.25 µg/mL

CC[C@@H](CO)NCCN[C@@H](CC)CO [Ethambutol]
Fold change in MIC for IAR2 [1]: 0
MIC for IAR2 [1]: 1 µg/mL

NNC(=O)c1ccncc1 [Isoniazid, reference compound]
Fold change in MIC for IAR2 [1]: 0
MIC for IAR2 [1]: 0.04 µg/mL

CO[C@H]1/C=C/O[C@@]2(C)Oc3c(C)c(O)c4c(O)c(c(/C=N/N5CCN(C)CC5)c(O)c4c3C2=O)NC(=O)/C(C)=C\C=C\[C@H](C)[C@H](O)[C@@H](C)[C@@H](O)[C@@H](C)[C@H](OC(C)=O)[C@@H]1C [Rifampin]
Fold change in MIC for IAR2 [1]: 0.25
MIC for IAR2 [1]: 0.03125 µg/mL
MIC for IAR2 compared with H37Rv [1]: lower MIC value

CC(C)=CCC/C(C)=C/CNCCNC1C2CC3CC(C2)CC1C3 (stereo not shown) [SQ109]
Fold change in MIC for IAR2 [1]: 16
MIC for IAR2 [1]: 4 µg/mL

AU1235
MIC for IAR2 [1]: >64 µg/mL

BM212
Fold change in MIC for IAR2 [1]: 2
MIC for IAR2 [1]: 4 µg/mL
MIC upshift for IAR2 versus H37Rv [1]: 2 fold

Capreomycin
Fold change in MIC for IAR2 [1]: 0
MIC for IAR2 [1]: 1 µg/mL
